Experiment [1] addresses T1, PIG-tailed EPO-R immobilized on mAb179 (Homo sapiens, UniProt P19235).
T1 construct: comprised the extracellular domain of the EPO-receptor; thrombin cleavage site (internal); made in house
T1 sequence (P19235 25-250 limits assumed): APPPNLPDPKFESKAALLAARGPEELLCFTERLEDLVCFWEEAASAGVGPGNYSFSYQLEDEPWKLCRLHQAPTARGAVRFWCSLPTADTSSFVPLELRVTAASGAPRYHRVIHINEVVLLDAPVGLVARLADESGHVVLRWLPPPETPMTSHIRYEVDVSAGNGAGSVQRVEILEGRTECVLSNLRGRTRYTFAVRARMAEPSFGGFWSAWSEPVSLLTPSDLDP
The experiment can be described thus: PIG-tailed EPO-R radioligand competition binding assay. The note with it: streptavidin 4:1 experiment; free peptide concentrations.
Protocol: Affinity was determined using a radioligand competition binding assay against PIG-tailed EPOR immobilized on mAB179.
The recombinant receptor protein was immobilized using the following methodology. Microtiter plates were coated within an anti-receptor antibody and the wells which were to contain the immobilized receptor were treated with bovine serum albumin (BSA) to block non-specific binding. The PIG-tailed receptor having a thrombin cleavage site was added to the coated wells of the microtiter plate, which were then washed to remove unbound receptor.
IC50 s were calculated for several of the peptides falling within the general motifs described above.
This peptide was incubated with streptavidin in PBS at a 4:1 molar ratio at room temperature for one hour.
The affinity of the dimer was tested against the PIG-tailed EPOR immobilized on mAbl179 in strip wells.

In experiment [2] the target is T2, truncated human erythropoietin receptor cell line (Homo sapiens, UniProt P19235).
T2 sequence (P19235 25-468 limits assumed): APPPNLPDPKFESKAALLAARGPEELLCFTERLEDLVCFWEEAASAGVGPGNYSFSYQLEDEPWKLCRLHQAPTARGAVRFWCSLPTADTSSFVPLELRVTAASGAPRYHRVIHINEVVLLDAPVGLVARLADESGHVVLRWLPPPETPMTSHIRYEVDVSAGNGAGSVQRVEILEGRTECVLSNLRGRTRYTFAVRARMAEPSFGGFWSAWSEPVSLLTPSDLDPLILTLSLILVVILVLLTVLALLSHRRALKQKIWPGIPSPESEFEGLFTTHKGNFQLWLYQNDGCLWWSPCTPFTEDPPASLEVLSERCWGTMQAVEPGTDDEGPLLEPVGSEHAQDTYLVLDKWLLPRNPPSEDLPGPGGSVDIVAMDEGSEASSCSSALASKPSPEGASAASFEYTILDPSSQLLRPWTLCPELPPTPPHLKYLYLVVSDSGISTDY
The experiment can be described thus: cell-based.
Protocol: Cells are harvested and resuspended in fresh medium without growth factor (erytiropoietin) for 24 hr. Cells are counted and resuspended at a concentration of 800,000 cells/ml. Approximately forty thousand cells (50μ) are added to each well of a 96 well microtiter plate. Peptide is added to each well in triplicate. A standard dose response determination is run with each series of peptides. After a forty-two hr incubation (≈2 doubling), each well is pulsed with 1 μCi/well Thymidine. Cells are incubated an additional six hr at which time cells are harvested and counted to assess thymidine incorporation as an indicator of cell proliferation.

Experiment [3] deals with T3, murine receptor (FDC-P1/ER cells) (Mus musculus, UniProt P14753).
T3 sequence (P14753 25-507): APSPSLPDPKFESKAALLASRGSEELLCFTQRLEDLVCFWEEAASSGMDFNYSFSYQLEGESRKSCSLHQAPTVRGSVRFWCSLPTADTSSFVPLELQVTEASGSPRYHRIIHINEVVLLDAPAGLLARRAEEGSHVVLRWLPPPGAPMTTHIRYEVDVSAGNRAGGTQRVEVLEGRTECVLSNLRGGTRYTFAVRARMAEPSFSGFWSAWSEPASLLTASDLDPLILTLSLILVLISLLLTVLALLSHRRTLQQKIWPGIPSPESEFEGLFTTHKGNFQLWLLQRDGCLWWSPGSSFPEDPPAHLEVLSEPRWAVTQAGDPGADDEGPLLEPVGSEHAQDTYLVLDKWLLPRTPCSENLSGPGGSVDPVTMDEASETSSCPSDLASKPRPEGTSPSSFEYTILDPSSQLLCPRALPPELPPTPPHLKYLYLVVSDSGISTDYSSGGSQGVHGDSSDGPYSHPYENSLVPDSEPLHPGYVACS
The experiment can be described thus: cell-based. Conditions: IA = inactive.

The target of experiment [4] is T4, FDCP-1/hEPO-R cells (human EPO-R) (Homo sapiens, UniProt P19235).
T4 sequence (P19235 25-508): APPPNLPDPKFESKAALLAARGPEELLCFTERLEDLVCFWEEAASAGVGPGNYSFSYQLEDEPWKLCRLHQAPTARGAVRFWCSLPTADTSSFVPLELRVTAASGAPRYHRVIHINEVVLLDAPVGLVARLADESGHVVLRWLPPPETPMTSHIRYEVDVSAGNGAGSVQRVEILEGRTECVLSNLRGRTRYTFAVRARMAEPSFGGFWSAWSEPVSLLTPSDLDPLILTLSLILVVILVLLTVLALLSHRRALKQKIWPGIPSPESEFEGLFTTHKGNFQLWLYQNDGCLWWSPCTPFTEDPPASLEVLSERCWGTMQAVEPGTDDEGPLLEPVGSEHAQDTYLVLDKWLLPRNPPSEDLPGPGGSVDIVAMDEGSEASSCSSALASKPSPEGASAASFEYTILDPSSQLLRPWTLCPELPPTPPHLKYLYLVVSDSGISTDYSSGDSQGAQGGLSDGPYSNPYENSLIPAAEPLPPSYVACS
The experiment can be described thus: cell-based. Here is the method:
One assay utilized FDCP-1, a growth factor depenent murne multi-potential primitive hematopoietic progenitor cell line (see, e.g., Dexter et al. (1980) J. Exp. Med. 152:1036-1047), as the parental cell line. This cell line can proliferate, but not differentiate, when supplemented with WEHI3-conditioned media (a medium that contains IL-3, ATCC number T1B68).
In brief, the cells are grown to half stationary density in the presence of the necessary growth factors. The cells are then washed in PBS and starved for 16-24 hours in whole media without the growth factors. After determining the viability of the cells, stock solutions (in whole media without the growth factors) are made to give about 10^5 cells per 50 microliters. […] Cells (50 microliters) are added to each well and the cells are incubated 24-48 hours, at which point the negative controls should die or be quiescent. Cell proliferation is then measured by techniques known in the art, such as an MTT assay which correlates with ^3 H-thymidine incorporation as an indication of cell proliferation (see, Mosmann (1983) J. Immnunol. Methods 65:55).
In addition, this peptide was preincubated with streptavidin in serum-free HEPES-buffered RPMI at a 4:1 molar ratio, as above. The complex was tested for stimulation of cell proliferation in an FDCP-1/hEPO-R bioassay alongside. free […] […]

Experiment [5] has as its target T5, extracellular domain of the human erythropoietin receptor (EPO binding protein, EBP) (Homo sapiens, UniProt P19235).
T5 construct: made in house
T5 sequence (P19235 25-250 limits assumed): T1 sequence (P19235 25-250 limits assumed)
The experiment can be described thus: Immobilized EBP based [125I]EPO competition binding assay. The note with it: IC50 relative to RWJ61233 (IC50 5 μM); cyclic peptides, COOH terminal amides. On the procedure: The iodoacetyl activation chemistry of Sufolink beads (Pierce Chemical Co, Rockford, Ill.) is specific for free thiols and assures that the linkage is not easily reversible. EBP-Sulfolink beads were made as follows: SulfoLink gel suspension (10 ml) was mixed with coupling buffer (40 ml: 50 mM Tris, pH 8.3, 5 mM EDTA) and the gel was allowed to settle. The supernatant was removed and the EBP (0.3-1 mg/ml in coupling buffer) to be bound was added directly to the washed beads. The mixture was rocked gently for 30 minutes at room temperature, and the beads were allowed to settle for 1 hour at room temperature. […] The amount of EBP which was covalently bound to the beads was determined by comparing the OD280 of the original EBP solution to the total OD280 recovered in the reaction supernatant and the two 20 ml washes.
Binding assays were initiated by the addition of EBP beads (50 μl) to individual reaction tubes. […] The tubes were incubated for five hours (a time period experimentally determined as adequate for the establishment of equilibrium) at room temperature with gentle rocking. […]
Competitive binding analysis assays of candidate peptides were performed as outlined below. […] The columns containing the washed beads were placed in 12×75 mm glass tubes and bound radioactivity levels were determined using a gamma counter.

The mark [6] stands for this setting: EPO-ED50 (μM), Tables 17-19, amount for half maximal level of EPO dependent proliferation.

Like-named read-outs stand apart in the source and are kept apart here. Residues, ends and D or L forms follow the SMILES beside them.

As to `CC(C)C[C@@H]1NC(=O)[C@@H]2CCCN2C(=O)CNC(=O)[C@H](Cc2ccccc2)NC(=O)[C@H](Cc2c[nH]cn2)NC(=O)[C@@H](NC(=O)[C@H](CO)NC(=O)[C@H](Cc2ccc(O)cc2)NC(=O)[C@@H](NC(=O)CNC(=O)CN)[C@@H](C)O)CSSC[C@@H](C(=O)N[C@@H](CCCCN)C(=O)N2CCC[C@H]2C(=O)N[C@@H](CCC(N)=O)C(=O)NCC(=O)NCC(=O)N[C@@H](CO)C(=O)N[C@@H](CO)C(=O)N[C@@H](CCCCNC(=O)CCCCCNC(=O)CCCC[C@@H]2SC[C@@H]3NC(=O)N[C@@H]32)C(N)=O)NC(=O)[C@H](C(C)C)NC(=O)[C@H](Cc2c[nH]c3ccccc23)NC(=O)[C@H]([C@@H](C)O)NC1=O` (HELM PEPTIDE1{G.G.T.Y.S.C.H.F.G.P.L.T.W.V.C.K.P.Q.G.G.S.S.K.[am]}|PEPTIDE2{[O=C1N[C@H]2[C@H](CS[C@H]2CCCCC(=O)[*:2])N1].[O=C(CCCCCN[*:1])[*:2]]}$PEPTIDE1,PEPTIDE2,23:R3-2:R2|PEPTIDE1,PEPTIDE1,6:R3-15:R3$$$V2.0; N-terminus and C-terminus assumed), the IC50 in experiment [1] amounted to 350 nM.

`CC(C)C[C@@H]1NC(=O)[C@@H]2CCCN2C(=O)CNC(=O)[C@H](Cc2ccccc2)NC(=O)[C@H](Cc2c[nH]cn2)NC(=O)[C@@H](NC(=O)[C@H](CO)NC(=O)[C@H](Cc2ccc(O)cc2)NC(=O)[C@@H](NC(=O)CNC(=O)CN)[C@@H](C)O)CSSC[C@@H](C(=O)N[C@@H](CCCCN)C(=O)N2CCC[C@H]2C(=O)N[C@@H](CCC(N)=O)C(=O)NCC(=O)NCC(N)=O)NC(=O)[C@H](C(C)C)NC(=O)[C@H](Cc2c[nH]c3ccccc23)NC(=O)[C@H]([C@@H](C)O)NC1=O` [RWJ 61233] (HELM PEPTIDE1{G.G.T.Y.S.C.H.F.G.P.L.T.W.V.C.K.P.Q.G.G.[am]}$PEPTIDE1,PEPTIDE1,6:R3-15:R3$$$V2.0): the concentration for a half-maximal effect (EC50) was 100 nM in experiment [2]; 0.1 µM in experiment [3] (setting [6]); 400 nM in experiment [4]; ~1000 nM in experiment [4] (EPO-ED50, FIG. 10).

For the compound `CC(=O)NCC(=O)NCC(=O)N[C@H](C(=O)N[C@@H](Cc1ccc(O)cc1)C(=O)N[C@@H](CO)C(=O)N[C@H]1CSSC[C@@H](C(=O)N[C@@H](CCCCN)C(=O)N2CCC[C@H]2C(=O)N[C@@H](CCC(N)=O)C(=O)NCC(=O)NCC(N)=O)NC(=O)[C@H](C(C)C)NC(=O)[C@H](Cc2c[nH]c3ccccc23)NC(=O)[C@H]([C@@H](C)O)NC(=O)[C@H](CC(C)C)NC(=O)[C@@H]2CCCN2C(=O)CNC(=O)[C@H](Cc2ccccc2)NC(=O)[C@H](Cc2c[nH]cn2)NC1=O)[C@@H](C)O` [RWJ 62146] (HELM PEPTIDE1{[ac].G.G.T.Y.S.C.H.F.G.P.L.T.W.V.C.K.P.Q.G.G.[am]}$PEPTIDE1,PEPTIDE1,7:R3-16:R3$$$V2.0), the EC50 was 60 nM in experiment [2] and 0.03 µM in experiment [3] (EPO-ED50 (μM)* murine receptor, Tables 20-21). Further, in experiment [5], the “Relative Binding” value is recorded as 4.

Turning to `CC(C)C[C@@H]1NC(=O)[C@@H]2CCCN2C(=O)CNC(=O)[C@H](Cc2ccccc2)NC(=O)[C@H](Cc2c[nH]cn2)NC(=O)[C@@H](NC(=O)[C@H](CO)NC(=O)[C@H](Cc2ccc(O)cc2)NC(=O)[C@@H](NC(=O)CNC(=O)CN)[C@@H](C)O)CSSC[C@@H](C(=O)N[C@@H](CCCCN)C(=O)N2CCC[C@H]2C(=O)N[C@@H](CCC(N)=O)C(=O)NCC(=O)NCC(N)=O)NC(=O)[C@H](C(C)C)NC(=O)[C@H](Cc2ccccc2)NC(=O)[C@H]([C@@H](C)O)NC1=O` [RWJ 62145] (HELM PEPTIDE1{G.G.T.Y.S.C.H.F.G.P.L.T.F.V.C.K.P.Q.G.G.[am]}$PEPTIDE1,PEPTIDE1,6:R3-15:R3$$$V2.0), the EC50 worked out at 500 nM in experiment [2] and 0.25 µM in experiment [3] (setting [6]).

With RWJ 61721 (GGTYSEHFGPLTWVKKPQGG), the “Relative Binding” value in experiment [5] is > 100.

Source of the values: patent publication US5773569A (Affymax Technologies N.V., priority 1995, dated 1998).
